Results taken from US7858649B2, “Imidazole derivatives and their use for modulating the GABAA receptor complex” (Neurosearch A/S, priority 2005, dated 2010).

Columns and labels:
[1] = target: benzodiazepine binding site on GABAA receptors (rat cerebral cortex membranes); experiment: In vitro inhibition of 3H-flunitrazepam (3H-FNM) binding; conditions: inhibition of specific binding of 3H-FNM (1 nM), cerebral cortex membranes from male Wistar rats, 40 min at 2° C.
Experimental: In Vitro Inhibition of ^3H-flunitrazepam (^3H-FNM) Binding
The GABA recognition site and the benzodiazepine modulatory unit can selectively be labelled with ^3H-flunitrazepam.
Preparations are performed at 0-4° C. unless otherwise indicated. Cerebral cortex from male Wistar rats (150-200 g) is homogenised for 5-10 sec in 20 ml Tris-HCl (30 mM, pH 7.4) using an Ultra-Turrax homogeniser. The suspension is centrifuged at 27,000×g for 15 min and the pellet is washed three times with buffer (centrifuged at 27,000×g for 10 min). The washed pellet is homogenized in 20 ml of buffer and incubated on a water bath (37° C.) for 30 min to remove endogenous GABA and then centrifuged for 10 min at 27,000×g. The pellet is then homogenized in buffer and centrifuged for 10 min at 27,000×g. The final pellet is resuspended in 30 ml buffer and the preparation is frozen and stored at −20° C.
The membrane preparation is thawed and centrifuged at 2° C. for 10 min at 27,000×g. The pellet is washed twice with 20 ml 50 mM Tris-citrate, pH 7.1 using an Ultra-Turrax homogeniser and centrifuged for 10 min at 27,000×g. The final pellet is resuspended in 50 mM Tris-citrate, pH 7.1 (500 ml buffer per g of original tissue), and then used for binding assays. Aliquots of 0.5 ml tissue are added to 25 μl of test solution and 25 μl of ^3H-FNM (1 nM, final concentration), mixed and incubated for 40 min at 2° C. Non-specific binding is determined using Clonazepam (1 μM, final concentration). After incubation the samples are added 5 ml of ice-cold buffer and poured directly onto Whatman GF/C glass fibre filters under suction and immediately washed with 5 ml ice-cold buffer. The amount of radioactivity on the filters is determined by conventional liquid scintillation counting. Specific binding is total binding minus non-specific binding.
25-75% inhibition of specific binding must be obtained, before calculation of an IC50.
The test value will be given as IC50 (the concentration (μM) of the test substance which inhibits the specific binding of ^3H-FNM by 50%).
Co is specific binding in control assays, and […]

Row | SMILES | melting point [°C] | IC50 [1] [nM]
1 | Cc1noc(-c2cn(-c3cccc(Br)c3)cn2)n1 | 200.1 to 202.4 | 
2 | Cc1noc(-c2cn(-c3cccc(-c4ccc(F)nc4)c3)cn2)n1 [2-Fluoro-5-{3-[4-(3-methyl-[1,2,4]oxadiazol-5-yl)-imidazol-1-yl]-phenyl}-pyridine] |  | 60
3 | Cc1noc(-c2cn(-c3cccc(-c4ccccc4F)c3)cn2)n1 [3-Methyl-5-[1-(2′-fluoro-biphenyl-3-yl)-1H-imidazol-4-yl]-[1,2,4]oxadiazole] |  | 33
4 | Cc1noc(-c2cn(-c3cccc(-c4ccccc4OC(F)(F)F)c3)cn2)n1 [3-Methyl-5-[1-(2′-trifluoromethoxy-biphenyl-3-yl)-1H-imidazol-4-yl]-[1,2,4]oxadiazole] | 141.6 to 143.9 | 17
